According to EP3299021A1 (priority 2016, dated 2018):
Where two headings read alike, the source gives them in different places.

What was measured:
[1] = test system: mitochondrial respiration chain; type: biochemical, mouse
Method: The mitochondrial integrity and function was analysed by measuring the oxygen consumption of the different complexes in the mitochondrial respiration chain. Therefore, the isolation and oxygen consumption of the mitochondria were based on the protocol of Frezza et al. (Organelle isolation: functional mitochondria from mouse liver, muscle and cultured fibroblasts. Nat Protoc, 2 (2): 287-295, 2007.) with some modifications. All chemicals and kits were supplied by Sigma Aldrich, Germany.
The oxygen consumption was measured by a microcathode oxygen electrode (S1782, Strathkelvin Instruments, Great Britain). The electrodes were calibrated according to the manufacturer's protocol. Mitochondria (1 mg protein) were suspended in 1 ml experimental buffer ([…], 10 mM Tris/MOPS, 40 mM EGTA/Tris 4, […]). As a substrate of complexes II, III and IV, 5 mM succinate was added. The main read out is the "respiratory control ratio (RCR)" that can be calculated by the ratio of "state 3" and "state 4" respiration, which is equivalent to the ratio of ADP-dependent respiration and ADP-independent respiration. […] If the ADP was consumed completely, the slope of the oxygen consumption ("state 4" respiration) looked similar to the "state 2" slope.

liver = details: 1 h ischemia and 1 h reperfusion, all STS doses (Fig. 4b)
Method: To implement the ex vivo IRI model, the liver was perfused via the portal vein with oxygenated Krebs-Henseleit buffer for 5 min one-way and 5 min in reverse. Afterwards, the pump was stopped for 1 h followed by 1 h reperfusion. During reperfusion, tissue samples were collected every 10 min.
The method is based on the reaction of GSH with 5,5'-dithiobis(2-nitrobenzoic acid) (DTNB), whereby 2-nitro-5-mercaptobenzoic acid is cleaved, which then leads to a color change. The frozen liver samples were homogenised in a 0.2 M sodium phosphate buffer (pH 8), containing 0.005 M EDTA, and four volumes of 25 % metaphosphoric acid. Subsequently, the samples were centrifuged at 9000 x rcf for 30 min at 4 °C. The absorbance was read at 412 nm using a Spekol 1100 (Carl Zeiss GmbH, Jena, Germany). A standard curve was performed with GSH.
In addition, the GSSG concentration was assessed fluorometrically (fluorescencespectrophotometer F-2000, Hitachi, Tokio, Japan). […] The fluorescence intensity is proportional to the GSSG concentration. […]
Therefore, a monovascular perfusion of the liver through the portal vein (anterograde perfusion) was carried out. […] During the whole experiment, the pressure within the liver was monitored via a pressure transducer (Biopac®Systems Inc, MP150, CA, USA) to control the physiological pressure of the liver. […]

TOM20 = details: for TOM20 signal: immunofluorescence, without STS 258, healthy control 672
Method: In addition to autophagy marker proteins, the translocase of the mitochondrial outer membrane 20 (TOM20) was analysed. […] To detect a possible specific loss of TOM20 in liver cells, immunofluorescence staining was carried out.
Finally, the liver tissue samples were stored for histological and molecular biological analysis.
The total protein content was isolated from the frozen tissue samples by an protein isolation buffer pH 7.5 (10 mM Tris, 250 mM saccharose, 1 mM EDTA, 1 % phosphatase-inhibitor, 1 % protease-inhibitor). To keep organelles and membranes as intact as possible, a tightly fitting Dounce homogenizer (Kimble Chase, Mexico) was used resulting in a mild and mechanical homogenisation. Afterward, the homogenate was centrifuged at 900 x rcf for 10 min at 4 °C. The protein content in the post nucleus supernatant was determined using the BCA assay (Sigma Aldrich, Hamburg, Germany). In addition, the samples were incubated for 15 min at room temperature with Laemmli sample buffer to denature the protein structure.
Afterward, the proteins were separated by size using 4-12 % SDS-gels (NuPAGE® Bis-Tris Gel, Invitrogen, Germany) in a SDS-Gel electrophoresis (XCellSureLock® Mini Gel chamber and NuPAGE®MOPS SDS Running Buffer, Invitrogen, Germany). Subsequently, the proteins were transferred to a PVDF-membrane (Roth, Germany). A blocking solution containing tris-buffered saline and tween 20 (TBST) pH 7.5 (10 mM Tris, 100 mM NaCl, 0.1 % Tween 20) 5 % BSA or skim milk (Sigma-Aldrich, Germany) was used to block unspecific bindings. The membrane was incubated with this solution for 1 h at room temperature. Next, the membrane was incubated with a rabbit polyclonal LC3B antibody (Cell Signaling Technology®, Danvers, USA 1:500 dilution), a rabbit polyclonal TOM20 antibody (Abcam®, Cambridge, UK 1:500 dilution) or a rabbit polyclonal β-actin antibody (Abcam®, Cambridge, UK 1:2,000 dilution) overnight at 4 °C. All primary antibodies were diluted in the blocking solution depending on the manufacture's protocol. After washing the membrane with TBST buffer 3 times, a horseradish peroxidase (HRP)-conjugated secondary antibody (1:5,000) was added for 1 h at room temperature. In the last step, the membrane was washed again with TBST buffer 3 times.
Detection of the secondary antibody by chemiluminescence was performed using HRP substrate (Immobilon Western HRP Substrat, Merck Millipore, USA) by the LAS3000 (GE Healthcare, Frankfurt, Germany). Finally, the target proteins were quantified by densitometric analysis in the software ImageJ (National Institutes of Health, USA). B-actin served as loading control to calculate the differences in the protein expression between the groups.
Immunofluorescence staining was used to investigate the TOM20 localisation. […]

mitochondria = details: low dose STS, 1 h after reperfusion (Fig. 5a)
Method: The analysis of the ultra-structure of the tissue was performed by TEM. Therefore, the liver had to be perfused with 4 ml/min for 2 min with warm, oxygenated KBH to wash out all blood as described in section 3.4. Afterward, the liver was perfused with fixation buffer pH 7.4 (4 % paraformaldehyde, 2.5 % glutaraldehyde, 0.1 M sodium cacodylate) for 4 min. After the fixation, the liver was removed and cut into 1-2 mm slices. These slides were incubated overnight in the fixation buffer at 4 °C. Subsequently, the slices were cut into cubes and stored in 0.1 M cacodylate buffer.
The samples were embedded in Araldite resin (Piano, Wetzlar, Germany) according to manufacturer's instruction. Semithin sections (1 µm) were stained with Richardson's methylene blue to get a general overview. The areas of the samples were then further trimmed down to 500 x 500 µm. Ultra-thin sections of 80 nm thickness were cut using the ultramicrotome Ultracut E (Reichert-Jung, Wien, Austria). Finally, sections were investigated using a transmission electron microscope EM900 (Zeiss).

hepatic IRI [2] = details: medium dose 0.045 g STS/kg BW into tail vein
Method: Intravital microscopy has been used to analyse the early reperfusion injury in WT and Cse^-/- mice. Assay of plasma parameters and histological staining was applied to analyse later IRI. Rhodamine 123 was injected into the tail vein 5 min before the onset of the experiment. […] The mice were monitored for 2 h without IRI in the sham control group.
In all experiments male WT and Cse^-/- mice between 10 and 12 weeks were used for a standardised hepatic IRI model. One week before the experiments started, 100 µl blood was taken from the orbital sinus. Body temperature was maintained with a heating plate. During the actual experiment, ischemia was induced in the left lateral lobe of the liver by clamping the hepatic artery and the portal vein using a microaneurysm clamp (FST, Heidelberg, Germany). This procedure results in a segmental (30 %) ischemia. […]
IVM was conducted to monitor the mitochondrial membrane potential in vivo with confocal laser scanning microscopy. Therefore, the animals remained under deep general anesthesia using isoflurane and pain reflexes were assessed to gauge the depth of anesthesia. […] Rhodamine 123 was excited at 488 nm (Argon/2 laser) and the emitted light was detected by a monochromatic filter at 530 ± 30 nm (GaAsP detector). […] The standard deviation of the Rhodamine 123 fluorescence signal was calculated to quantify the changes of the mitochondrial granularity over time. […]

hepatic IRI [3] = test system: hepatic IRI
Source text: The mice were imported by embryonic transfer into the animal facility of the Jena University Hospital and conducted under pathogen free conditions. The original mixed Sv129/C57 background was backcrossed to a 99 % C57BL/6 background. In all experiments male WT and Cse^-/- mice between 10 and 12 weeks were used for a standardised hepatic IRI model. […] Body temperature was maintained with a heating plate. During the actual experiment, ischemia was induced in the left lateral lobe of the liver by clamping the hepatic artery and the portal vein using a microaneurysm clamp (FST, Heidelberg, Germany). This procedure results in a segmental (30 %) ischemia. After 1 h, the clamp was removed to initiate the reperfusion. The reperfusion time points were set to 1 h or 24 h. Subsequently, the mice were sacrificed and both, plasma and organs, were harvested. During deep isoflurane (Forene®, Abb-Vie Deutschland GmbH & Co. KG, Ludwigshafen, Germany) anaesthesia, the blood was collected and plasma was generated. Next, the liver, the kidney and the spleen were removed and washed with saline.
The analysis of the ultra-structure of the tissue was performed by TEM. Therefore, the liver had to be perfused with 4 ml/min for 2 min with warm, oxygenated KBH to wash out all blood as described in section 3.4. […]

Row | Substance | RCR at higher concentrations [1] | mitochondrial respiratory activity [1] | amount of total glutathione (liver) | TOM20 levels by Western blot (TOM20; healthy controls vs IRI treated livers vs STS treated groups (Fig. 6a)) | TOM20 signal (TOM20; high dose 0.45 g STS/kg BW) | TOM20 signal (TOM20; low dose 0.0045 g STS/kg BW) | TOM20 signal (TOM20; medium dose 0.045 g STS/kg BW) | mitochondrial structure by transmission electron microscopy (mitochondria) | mitochondrial granularity (hepatic IRI [2]; WT and Cse-/- mice, end of reperfusion (120 min)) | mitochondrial granularity (hepatic IRI [2]; WT mice, beginning of reperfusion (60 min)) | mitochondrial ultrastructure by transmission electron microscopy (hepatic IRI [3]; Cse-/- mice after IRI with STS treatment (Fig. 8b)) | mitochondrial ultrastructure by transmission electron microscopy (hepatic IRI [3]; WT mice after IRI with STS treatment (Fig. 8b)) | decline of RCR induced by tert-BOOH oxidative stress ([1]; 200 µM tert-BOOH + 1 µM NaHS (Fig. 3b)) | mitochondrial respiratory activity ([1]; at low doses (Fig. 3a)) | concentration that induced inhibitory effects on respiratory control ratio (RCR) ([1]; isolated mitochondria, 0-100 µM NaHS, no oxidative stress (Fig. 3a))
1 | sodium thiosulfate [STS] | decreased RCR | stimulated mitochondrial respiratory activity | significantly decreased by IRI independently on STS treatment | no significant differences | 194 positive cells per mm^2 | 305 positive cells per mm^2 | 422 positive cells per mm^2 | retained their normal structure | This effect was also detected | pronounced recovery of the mitochondrial granularity | electron-dense accumulation | normal mitochondrial architecture |  |  | 
2 | sodium hydrogen sulphide [NaHS] |  |  |  |  |  |  |  |  |  |  |  |  | compensated the decline of RCR | stimulated mitochondrial respiratory activity | 100 µM
